# ChEMBL document CHEMBL4725337, “Modification of imidazothiazole derivatives gives promising activity in B-Raf kinase enzyme inhibition; synthesis, in vitro studies and molecular docking” (Bioorg Med Chem Lett, 2020)
# System: UACC-62
# Assay: Antiproliferative activity against human UACC-62 cells at 10 uM relative to control
# Type: functional
row,Structure (SMILES),Activity [%]
1,Nc1cccc(-c2nc3sccn3c2-c2ccnc(NCCCCNS(=O)(=O)c3ccc(Br)cc3)n2)c1,3.91

# Target: Serine/threonine-protein kinase B-raf (Homo sapiens, UniProt P15056, V600E)
# Sequence (P15056 2-766 V600E limits assumed): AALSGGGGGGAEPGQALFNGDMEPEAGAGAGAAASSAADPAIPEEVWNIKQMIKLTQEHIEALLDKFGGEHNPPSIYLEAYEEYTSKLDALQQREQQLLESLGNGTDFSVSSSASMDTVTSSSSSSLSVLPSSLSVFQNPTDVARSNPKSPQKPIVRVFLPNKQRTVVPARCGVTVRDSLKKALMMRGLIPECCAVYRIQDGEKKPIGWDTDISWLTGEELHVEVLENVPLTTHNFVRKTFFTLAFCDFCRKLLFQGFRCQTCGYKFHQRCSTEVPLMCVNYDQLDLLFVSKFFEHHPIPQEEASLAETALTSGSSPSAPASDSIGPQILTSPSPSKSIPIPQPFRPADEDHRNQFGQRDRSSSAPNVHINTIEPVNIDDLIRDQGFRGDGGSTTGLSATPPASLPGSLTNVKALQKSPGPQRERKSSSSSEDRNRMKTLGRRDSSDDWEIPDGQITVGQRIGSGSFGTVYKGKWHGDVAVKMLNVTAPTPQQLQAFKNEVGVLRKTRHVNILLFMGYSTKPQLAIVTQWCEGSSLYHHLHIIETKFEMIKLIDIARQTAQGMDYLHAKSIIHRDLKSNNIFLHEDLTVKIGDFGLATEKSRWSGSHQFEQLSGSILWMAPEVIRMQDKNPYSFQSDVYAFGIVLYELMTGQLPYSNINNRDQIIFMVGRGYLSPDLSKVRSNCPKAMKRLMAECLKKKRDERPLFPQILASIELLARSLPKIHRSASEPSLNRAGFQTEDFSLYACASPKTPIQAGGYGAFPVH
# Assay: Inhibition of BRAF V600E mutant (unknown origin)
row,IC50 [nM],Structure (SMILES)
1,12.7,Nc1cccc(-c2nc3sccn3c2-c2ccnc(NCCNS(=O)(=O)c3ccc(F)cc3)n2)c1
2,23.4,COc1ccc(S(=O)(=O)NCCNc2nccc(-c3c(-c4cccc(N)c4)nc4sccn34)n2)cc1
3,28.3,Nc1cccc(-c2nc3sccn3c2-c2ccnc(NCCNS(=O)(=O)c3cccc(F)c3)n2)c1
4,141,Nc1cccc(-c2nc3sccn3c2-c2ccnc(NCCNS(=O)(=O)c3ccc(C(F)(F)F)cc3)n2)c1
5,73.7,Nc1cccc(-c2nc3sccn3c2-c2ccnc(NCCNS(=O)(=O)c3ccc(Br)cc3)n2)c1
6,59.1,Cc1ccc(S(=O)(=O)NCCNc2nccc(-c3c(-c4cccc(N)c4)nc4sccn34)n2)cc1
7,16.7,Nc1cccc(-c2nc3sccn3c2-c2ccnc(NCCNS(=O)(=O)c3ccc(Cl)cc3)n2)c1
8,4.31,Nc1cccc(-c2nc3sccn3c2-c2ccnc(NCCCCNS(=O)(=O)c3ccc(Br)cc3)n2)c1
9,152,Nc1cccc(-c2nc3sccn3c2-c2ccnc(NCCNS(=O)(=O)c3cccc4ccccc34)n2)c1
